Measurements as given in publication PMC4868737, “BAY 1024767 blocks androgen receptor mutants found in castration-resistant prostate cancer patients” (Oncotarget, 2016).

What was measured:
[1] = system: AR wild-type and mutants L701H, E709Y, V715M, W741C, H874Y, F876L, T877A, M895T and M895V; assay: Transactivation assay, agonistic mode, transfected PC-3 cells, panel of AR variants; format: cell-based, human; conditions: all AR variants tested; no R1881 added with test compound; luciferase after 20 h
Procedure: Competitive binding to recombinant human AR was determined in presence of 5 nM tritiated R1881. PC-3 transfection and determination of luciferase activity were performed as before [49]. The test compounds were added with 0.1% ethanol (agonistic mode) or the indicated R1881 concentrations (antagonistic mode). The average value of six wells treated in parallel was taken. The experiments were repeated at least twice independently.

[2] = system: 22Rv1 (AR H874Y, splice variants); assay: Cell proliferation assay (Alamar Blue); format: cell-based; conditions: Homo sapiens, 22Rv1, 168 h
Procedure: (§1) All assays were performed in 96-well microtiter plates. […] LAPC-4 cells were plated at 4,000 cells/well, VCaP cells at 16,000 cells/well, LNCaP cells at 2,000 cells/well, 22Rv1 cells at 4,000 cells/well. After 1 day, the cells were treated with R1881 (0.1 nM final concentration, except for LAPC-4 where the final concentration was 1 nM) and compound (day 0). Cell number was determined by Alamar Blue staining (2 h). Fluorescence was measured in a Victor3 device (PerkinElmer, Waltham, MA, USA) with the excitation filter set at 530 nm and the emission filter set at 590 nm. C0 was defined as the signal measured at day 7 for cells treated only with R1881 and CI was defined as the signal measured at day 7 for cells grown without R1881 or compound.

[3] = system: LAPC-4 (AR wild-type); assay: Cell proliferation assay (Alamar Blue); format: cell-based; conditions: Homo sapiens, LAPC4, 168 h
Procedure: as §1

[4] = system: LNCaP (AR 877A); assay: Cell proliferation assay (Alamar Blue); format: cell-based; conditions: Homo sapiens, 168 h
Procedure: as §1

[5] = system: VCaP (AR wild-type, overexpressed); assay: Cell proliferation assay (Alamar Blue); format: cell-based; conditions: Homo sapiens, 168 h
Procedure: as §1

[6] = Metabolic stability in liver microsomes; format: in vitro ADME; conditions: 1 μM, calculated from half-life
Procedure: The metabolic stability of BAY 1024767 was determined by incubating the compound with suspensions of liver microsomes from different species at a concentration of 1 μM. The intrinsic clearance was calculated from the half-life of the compound. Together with additional parameters like microsomal protein content, species-specific liver weight and liver blood flow, the hepatic in vivo blood clearance (CLH) was calculated.

[7] = Caco-2 permeation assay; format: in vitro ADME; conditions: human
Procedure: Caco-2 cells were seeded on 24-well insert plates, 0.4 μm pore size, and grown for 15 days. The test compound was dissolved in DMSO and added either to the apical (A) or basolateral (B) compartment at a final concentration of 2 μM. Before and after 2 h incubation, samples were taken from both compartments and analyzed by LC/MS/MS. The apparent permeability (Papp) was determined for each direction and the efflux ratio was calculated as Papp B-A/Papp A-B.

[8] = molecular target: AR H874Y (Homo sapiens, UniProt P10275, H875Y); assay: cell-based; conditions: IC50 (antagonistic activity)
AR H874Y, sequence (P10275 whole entry H875Y): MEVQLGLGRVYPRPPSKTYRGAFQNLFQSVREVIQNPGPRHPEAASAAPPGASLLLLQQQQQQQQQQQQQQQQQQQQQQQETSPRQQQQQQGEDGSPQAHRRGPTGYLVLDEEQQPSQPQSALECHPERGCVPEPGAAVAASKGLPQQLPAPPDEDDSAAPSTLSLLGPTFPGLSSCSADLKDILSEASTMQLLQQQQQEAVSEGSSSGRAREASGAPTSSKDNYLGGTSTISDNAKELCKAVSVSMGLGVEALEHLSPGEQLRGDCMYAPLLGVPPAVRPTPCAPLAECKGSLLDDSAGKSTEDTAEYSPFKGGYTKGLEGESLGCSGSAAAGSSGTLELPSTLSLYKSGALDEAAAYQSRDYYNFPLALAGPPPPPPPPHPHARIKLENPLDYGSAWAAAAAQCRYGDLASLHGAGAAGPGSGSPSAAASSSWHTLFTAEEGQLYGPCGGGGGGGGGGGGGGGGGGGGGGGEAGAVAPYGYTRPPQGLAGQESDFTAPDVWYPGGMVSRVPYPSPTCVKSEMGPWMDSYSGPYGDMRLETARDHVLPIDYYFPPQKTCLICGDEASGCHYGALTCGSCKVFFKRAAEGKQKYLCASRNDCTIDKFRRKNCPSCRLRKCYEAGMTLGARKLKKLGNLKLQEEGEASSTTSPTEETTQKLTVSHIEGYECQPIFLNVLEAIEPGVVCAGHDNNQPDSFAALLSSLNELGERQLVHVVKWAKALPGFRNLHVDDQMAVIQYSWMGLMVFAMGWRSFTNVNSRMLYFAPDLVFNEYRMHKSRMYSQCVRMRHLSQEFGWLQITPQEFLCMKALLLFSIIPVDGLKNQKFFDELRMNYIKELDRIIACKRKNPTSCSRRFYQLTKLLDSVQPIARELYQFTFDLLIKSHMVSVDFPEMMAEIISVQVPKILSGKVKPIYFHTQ

[9] = molecular target: T1, AR F876L (Homo sapiens, UniProt P10275, F877L); assay: cell-based; conditions: IC50 (antagonistic activity)
T1 sequence (P10275 1-920 F877L): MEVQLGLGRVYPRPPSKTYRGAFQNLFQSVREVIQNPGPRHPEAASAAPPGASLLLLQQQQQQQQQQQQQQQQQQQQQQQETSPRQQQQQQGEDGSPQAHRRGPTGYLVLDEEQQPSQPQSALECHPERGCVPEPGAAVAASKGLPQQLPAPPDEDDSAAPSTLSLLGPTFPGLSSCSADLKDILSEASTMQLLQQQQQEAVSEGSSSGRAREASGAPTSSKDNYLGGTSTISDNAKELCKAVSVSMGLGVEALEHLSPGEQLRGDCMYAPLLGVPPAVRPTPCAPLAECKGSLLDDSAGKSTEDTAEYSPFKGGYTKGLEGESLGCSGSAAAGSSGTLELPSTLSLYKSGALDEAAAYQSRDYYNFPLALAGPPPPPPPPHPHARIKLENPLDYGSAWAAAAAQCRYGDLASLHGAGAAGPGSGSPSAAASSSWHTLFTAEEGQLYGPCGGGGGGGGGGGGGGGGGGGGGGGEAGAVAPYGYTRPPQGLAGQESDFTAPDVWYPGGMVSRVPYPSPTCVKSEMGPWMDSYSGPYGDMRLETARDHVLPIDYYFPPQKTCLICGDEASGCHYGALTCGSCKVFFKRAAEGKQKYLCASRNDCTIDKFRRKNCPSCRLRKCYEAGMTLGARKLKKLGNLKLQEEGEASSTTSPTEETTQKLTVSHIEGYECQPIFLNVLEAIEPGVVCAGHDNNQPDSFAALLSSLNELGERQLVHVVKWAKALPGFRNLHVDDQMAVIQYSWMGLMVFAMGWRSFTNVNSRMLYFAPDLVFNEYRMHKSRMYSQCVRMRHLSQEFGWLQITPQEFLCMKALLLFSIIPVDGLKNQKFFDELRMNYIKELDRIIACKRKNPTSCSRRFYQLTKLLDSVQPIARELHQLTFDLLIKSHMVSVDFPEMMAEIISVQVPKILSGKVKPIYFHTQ

[10] = molecular target: AR T877A (Homo sapiens, UniProt P10275, T878A); assay: cell-based; conditions: IC50 (antagonistic activity)
AR T877A, sequence (P10275 whole entry T878A): as the sequence (P10275 whole entry H875Y) above, with Y875H, T878A counted along it

Q: For `CC(C)(O)COc1ccc(CN2C(=S)N(c3ccc(C#N)c(C(F)(F)F)c3)C(=O)C2(C)C)cn1` [BAY 1024767], which “agonistic effect” value [1] is on record?
A: Its value is “No dose-dependent agonistic activity”.

Q: What about the GI50 [2] of the same compound?
A: The GI50 was 41 nM.

Q: What about the GI50 [3] of the same compound?
A: Its GI50 is 46 nM.

Q: And the GI50 [4]?
A: Its GI50 is 221 nM.

Q: And the GI50 [5]?
A: The GI50 was 229 nM.

Q: What about the CLH ([6]; dog liver microsomes) of the same compound?
A: Its CLH is 4.5 mL/min/kg.

Q: And the CLH ([6]; human liver microsomes)?
A: Its CLH is 5.83 mL/min/kg.

Q: What about the CLH ([6]; monkey liver microsomes) of the same compound?
A: The CLH was 11.7 mL/min/kg.

Q: What about the CLH ([6]; mouse liver microsomes) of the same compound?
A: The CLH was 3.17 mL/min/kg.

Q: What about the CLH ([6]; rat liver microsomes) of the same compound?
A: The CLH was 4.67 mL/min/kg.

Q: And the efflux ratio at 2 h, 2 μM [7]?
A: Its efflux ratio at 2 h, 2 μM is 0.61.

Q: What about the Papp A→B at 2 h, 2 μM ([7]; 2 μM, 2 h) of the same compound?
A: Its Papp A→B at 2 h, 2 μM is 18.3 ×10⁻⁶ cm/s.

Q: What about the IC50 ([8]; R1881 0.1 nM) of the same compound?
A: The IC50 was 31 nM.

Q: And the IC50 ([8]; R1881 1 nM)?
A: Its IC50 is 160 nM.

Q: What about the IC50 ([9]; R1881 0.1 nM) of the same compound?
A: The IC50 was 106 nM.

Q: What about the IC50 ([9]; R1881 1 nM) of the same compound?
A: Its IC50 is 293 nM.

Q: And the IC50 ([9]; R1881 10 nM)?
A: The IC50 was 2060 nM.

Q: And the IC50 ([10]; R1881 0.1 nM)?
A: Its IC50 is 320 nM.

Q: What about the IC50 ([10]; R1881 1 nM) of the same compound?
A: Its IC50 is 1100 nM.
